From patent US8476280B2, “Compositions and methods for combating lower urinary tract dysfunctions with delta opioid receptor agonists” (Versi Group, LLC, priority 2002, dated 2013)

How the values were obtained:
[1] = tested on: healthy conscious rats; assay: Cystometric parameters in healthy conscious rats; format: in vivo, rat; conditions: for inhibition of bladder contractions (micturition pressure): intravenous administration, recorded 90 minutes after injection; for frequency of bladder contractions / pressure of bladder contractions: oral administration via stomach cannula, recorded 120 minutes after administration
Protocol: Male rats weighing 200 to 250 grams were used. The rats were housed with free access to food and maintained on forced 12 hours alternating light-dark cycle at 22-24° C. for at least one week, except during performance of the experiment.
The rats were anesthetized with pentobarbital, 65 mg/kg i.p. and placed in a supine position. An approximately 10 mm long midline incision was made in the shaved and cleaned abdominal wall. The urinary bladder was freed from adhering tissues, emptied and then cannulated, via an incision at the dome with a polyethylene cannula (PE50), which was permanently sutured in place. The cannula was exteriorized through a subcutaneous tunnel in the retroscapular area, where it was connected with a plastic adapter to avoid the risk of removal by the rats. For intravenous (i.v.) injection of test compounds, a polyethylene tubing (PE50) was inserted into the jugular vein and exteriorized in the retroscapular area. Since cystometrographic parameters have been reported to be influenced by the time elapsed after catheter implantation, the rats were treated with 1 mg/kg Penicilline G, intramuscularly, to prevent infection and allowed to rest 3 days after implantation and before testing commenced.
For oral administration of test compounds, a polyethylene tube (PE50) was inserted into the stomach and was permanently sutured in place. The cannula was exteriorized through a subcutaneous tunnel in the retroscapular area, where it was connected with a plastic adapter to avoid the risk of removal by the rats.
On the day of the experiments, the rats were placed in Bollman's cages, the free tip of the bladder catheter was connected through a T-shaped tube to a pressure transducer (Grass PT300 or Gould P23) to record bladder pressure and to a peristaltic pump for continuous infusion, at a constant rate of […] of saline solution into the urinary bladder. The intraluminal pressure signal during infusion was continuously recorded. Two urodynamic parameters were evaluated: micturition pressure and interval between micturition that equates to volume capacity before detrusor contraction occurs (decrease in frequency of contractions). Micturition pressure is defined as the maximal intravesical pressure induced by the contraction of detrusor during micturition. Data was calculated as the mean of testing results for several animals at each dosage. The drug effects were expressed as a percent relative to activity of the control data, which was set at 100%.
Infusion was commenced with saline solution to determine activity in rats without test compounds to be used as the control baseline. Saline solution infusion was interrupted and the test compounds were administered. At time points 90 minutes after intravenous administration and 120 minutes after oral drug administration, cystometrograms were recorded in each animal and the mean values of the recorded cystometrographic parameters were calculated.

[2] = tested on: rats experiencing partial urethral restriction; assay: Cystometric parameters in rats experiencing partial urethral restriction; format: in vivo, rat; conditions: oral administration of 10 mg/kg
Description: Male rats weighing 200 to 250 grams were used. The method to produce bladder outlet obstructions thereby producing partial urethral restriction is essentially that reported by Malmgren et al, J. Urol. 137:1291-1294, the disclosure of which is hereby incorporated herein by reference. Following anesthetic induction, the ventral abdominal wall and perineum were shaved and cleaned with betadine. A lower midline abdominal incision was made, and the bladder and proximal urethra were identified. A plastic rod with a ˜1 mm outer diameter was placed parallel to the urethra, and a silk ligature was tied around the urethra and the plastic rod. […]
On the day of testing, the bladder catheter was connected through a T-shaped tube to a pressure transducer (Grass PT300 or Gould P23) to record bladder pressure isovolumetrically and to a peristaltic pump for continuous infusion, at a constant rate of 0.1 ml/min, of saline solution into the urinary bladder. The pressure signal during infusion was continuously recorded.
Two urodynamic parameters were evaluated in the test rats: micturition pressure and interval between voiding that equates to volume capacity before detrusor contraction occurs (decrease in frequency of contractions). Changes in bladder activity were recorded and expressed as pressure or volume over time.

SMILES | inhibition of bladder contractions (micturition pressure) [1] | frequency of bladder contractions [1] | pressure of bladder contractions [1] | frequency and intensity of pressure contractions ([2]; three test rats) | volume capacity (bladder capacity before voiding) ([2]; trace 1d)
Cc1ccccc1[C@H](c1cccc(O)c1)N1C[C@@H](C)NC[C@@H]1C [Compound 10, 3-((S)-((2S,5R)-2,5-Dimethyl-1-piperazinyl)(2-methylphenyl)methyl)phenol] | effected an inhibition of bladder contractions |  |  |  | 
C=CCN1C[C@H](C)N(C(c2ccccc2)c2cccc(C(=O)N(C)c3cccc(F)c3)c2)C[C@H]1C (stereo partly drawn) [Compound 4, 3-((alpha-S)-alpha-((2S,5R)-4-Allyl-2,5-dimethyl-1-piperazinyl)benzyl)-N-(3-fluorophenyl)-N-methylbenzamide] | effected an inhibition of bladder contractions |  |  |  | 
C[C@@H]1CN(Cc2ccc(C(=O)O)cc2)[C@@H](C)CN1[C@H](c1ccc(S(=O)(=O)N(C)C)cc1)c1cccc(O)c1 [Compound 11, 4-{4-[(R)-(4-dimethylsulfamoyl-phenyl)-(3-hydroxyphenyl)methyl]-(2S,5R)-dimethylpiperazin-1-ylmethyl}benzoic acid] |  | a decrease in the frequency of bladder contractions | a decrease in the pressure of these contractions |  | 
CCN(CC)C(=O)c1ccc(C(c2ccccc2)N2C[C@@H](C)N(Cc3ccc(F)cc3)C[C@@H]2C)cc1 (stereo partly drawn) [Compound 2, 4-((alpha-S)-alpha-((2S,5R)-2,5-Dimethyl-4-(4-fluorobenzyl)-1-piperazinyl)benzyl)-N,N-diethylbenzamide] | effected an inhibition of bladder contractions |  |  |  | 
CCN(CC)C(=O)c1ccc(C(c2ccccc2)N2C[C@@H](C)N(Cc3cccc(F)c3)C[C@@H]2C)cc1 (stereo partly drawn) [Compound 1, 4-((alpha-S)-alpha-((2S,5R)-2,5-Dimethyl-4-(3-fluorobenzyl)-1-piperazinyl)benzyl)-N,N-diethylbenzamide] | effected an inhibition of bladder contractions | a decrease in the frequency of bladder contractions | a decrease in the pressure of these contractions | marked improvement in both frequency and intensity of pressure contractions (reduced) | volume capacity increased
C=CCN1C[C@H](C)N(C(c2ccc(C(=O)N(CC)CC)cc2)c2cccc(OCC(=O)O)c2)C[C@H]1C (stereo partly drawn) [Compound 3, 3-((alpha-R)-alpha-((2S,5R)-4-allyl-2,5-dimethyl-1-piperazinyl)-4-(diethylaminocarbonyl)benzyl)phenoxyacetic acid] | effected an inhibition of bladder contractions |  |  |  | 
